Target: T1, GRdEcR/RXR (Drosophila melanogaster, UniProt P34021, E261P/P331L/Q260P/V259R)
T1 construct: ligation of a Not I-Bam HI fragment containing the DBD and LBD of a modified EcR cDNA, EcRnx; expressed in transfected cells; host or cells: CHO
T1 sequence (P34021 259-878 V259R/Q260P/E261P/P331L limits assumed): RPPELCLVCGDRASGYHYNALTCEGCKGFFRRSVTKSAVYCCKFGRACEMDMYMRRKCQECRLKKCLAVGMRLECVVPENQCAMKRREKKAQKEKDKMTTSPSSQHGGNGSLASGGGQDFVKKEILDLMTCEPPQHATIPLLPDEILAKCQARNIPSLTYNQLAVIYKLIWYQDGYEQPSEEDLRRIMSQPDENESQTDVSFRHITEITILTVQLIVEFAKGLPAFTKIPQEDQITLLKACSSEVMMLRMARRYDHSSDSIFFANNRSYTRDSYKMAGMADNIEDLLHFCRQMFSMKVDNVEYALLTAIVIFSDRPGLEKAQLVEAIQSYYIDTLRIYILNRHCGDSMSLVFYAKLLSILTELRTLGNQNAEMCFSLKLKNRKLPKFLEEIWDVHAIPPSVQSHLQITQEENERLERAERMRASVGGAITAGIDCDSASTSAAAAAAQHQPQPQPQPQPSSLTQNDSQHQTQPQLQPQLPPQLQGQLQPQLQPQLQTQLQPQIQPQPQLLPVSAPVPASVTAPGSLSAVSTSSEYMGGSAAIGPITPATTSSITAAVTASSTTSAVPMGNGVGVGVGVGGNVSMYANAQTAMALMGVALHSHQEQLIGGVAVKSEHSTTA
T1 sequence (P28700 1-467 partner): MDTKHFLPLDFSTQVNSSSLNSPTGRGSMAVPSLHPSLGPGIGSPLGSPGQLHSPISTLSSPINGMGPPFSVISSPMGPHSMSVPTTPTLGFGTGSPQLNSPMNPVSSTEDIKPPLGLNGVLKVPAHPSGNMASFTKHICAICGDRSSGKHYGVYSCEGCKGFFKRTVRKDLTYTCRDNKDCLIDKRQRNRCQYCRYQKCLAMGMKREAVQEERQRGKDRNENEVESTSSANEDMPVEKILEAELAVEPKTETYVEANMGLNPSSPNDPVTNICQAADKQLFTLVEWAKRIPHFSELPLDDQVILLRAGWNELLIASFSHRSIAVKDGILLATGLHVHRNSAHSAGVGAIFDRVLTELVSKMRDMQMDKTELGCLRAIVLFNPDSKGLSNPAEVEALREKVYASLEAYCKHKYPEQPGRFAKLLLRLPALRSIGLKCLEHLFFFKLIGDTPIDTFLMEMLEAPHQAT
Test: GRdEcR (GEcEc) chimera with RXR, (EcRE)5-ΔMTV reporter in CHO cells
Format: cell-based
Procedure: These experiments employed a mammalian cell culture system using Chinese hamster ovary cells (CHO) to evaluate the transcriptional function of Drosophila melanogaster EcR and USP using methods described previously (U.S. Patent Application Publication No: 2005/0049230; Henrich et al, 2003). Cells were seeded in 6-well polypropylene culture plates (Falcon) with 10^5 cells per well on the day prior to transfection. Transfection was subsequently performed using either calcium phosphate (Kitareewan et al., 1996, Mol. Biol. Cell, 7:1153-1196) or a GenePorter reagent (Gene Therapy Systems, Inc; San Diego, Calif.) following manufacturer's protocols. Each well received 1.25 μg of (EcRE)5-ΔMTV-CAT (five copies of the hsp27 EcRE inserted into an mouse mammary tumor virus (MTV) promoter upstream of the chloramphenicol acetyltransferase (CAT) gene) or (EcRE)5-ΔMTV-LUC (the same promoter attached to firefly luciferase), 1.25 μg of pCH111 (SV40 early promoter linked to the β-galactosidase gene) to normalize CAT activity, and 0.25 μg of each expression plasmid (EcR, FXR, RXR, USP) that was tested. The cells were incubated with plasmid DNA for seven hours and then washed with 1×PBS. Muristerone A (murA; Alexis Biochemicals) or 20-hydroxyecdysone (20E; Sigma) dissolved in ethanol to a concentration of 10 mM was diluted as necessary to the final assay concentration (FAC) in 2 ml of fresh incubation medium that was then applied to the cells. Similarly, JHIII (Sigma) was dissolved in dimethyl sulfoxide (DMSO) to a concentration of […] and diluted into the incubation medium to its final assay concentration (20, 40, 80, 160 μM). […] A corresponding volume of ethanol and DMSO were added to control cells for all experiments. For all experiments, the cells were allowed to incubate with the medium for 24 hours before collection and cell lysates were prepared by described methods (Kitareewan et al., 1996). Both β-galactosidase and CAT reporter activity were measured based on previously used methods (Kitareewan et al, 1996). Luciferase assays using luciferrin followed the specifications of the manufacturer.
Transcriptional activity, measured as ^14C-chloramphenicol counts (for measuring CAT activity) or relative luciferase activity (RLU) was quantified for each cell lysate. The counts were then normalized by adjusting for differences in β-galactosidase activity, since β-galactosidase expression is controlled by a constitutive promoter and provides an estimate of cell mass. Data were normalized as fold-induction based on differences in reporter gene activity between hormonally treated and control cells.
In an initial series of studies, a GRdEcR chimera that consists of the rat glucocorticoid receptor (GR) activation domain attached to the EcR DBD and LBD (FIG. 1) was cotransfected along with mRXRα into CHO cells. The response of transfected cells to murA was measured using a (EcRE)5-ΔMTV-CAT reporter plasmid that carries five tandem repeats of the hsp27 EcRE linked to the MTV (mouse mammary tumor virus) promoter and the chloramphenicol acetyltransferase gene (CAT).
The prominent candidate for this JH-responsive macromolecule in insects is the structurally-related ecdysone receptor (EcR). Like FXR, EcR heterodimerizes with RXR and binds to the hsp27 ecdysone-responsive DNA element (Forman et al., 1995), but distinctively activates transcription in response to muristerone A (MurA or MUR), a synthetic ecdysone (Yao et al., 1992). […] In the experiments shown in FIG. 15A, muristerone A (MUR) was added at the indicated doses in ethanol vehicle, and increasing amounts of JH III (12, 25, or 50 μM) were added (underlying triangles). Numbers over bars indicate the ratio of the GEcEc-dependent activity produced by 50 μM JH III in the presence of the indicated dose of MUR to the activity produced by MUR alone. Relative light units (RLU) from firefly luciferase in cell lysates are expressed relative to renilla luciferase (Promega).

COC(=O)/C=C(\C)CC/C=C(\C)CC[C@H]1OC1(C)C [JHIII, juvenile hormone III]
increase of MurA-induced GEcEc-dependent activity by JH III (80 μM JH III added to MurA): 3 times | response of GEcEc to JH III alone (80 μM JH III, no MurA): failed to respond | potentiation of murA response by JHIII (20, 40, 80, 160 μM JHIII at submaximal murA (0.1 μM and 1 μM)): potentiated the response of murA in a dose-dependent manner | MurA + JHIII (JHIII potentiation) (GRdEcR/RXR, 0.1 μM murA + 80 μM JHIII): + ((+) indicates observed potentiation that exceeds 2-fold above the levels observed with ecdysteroid alone) | effect of JHIII alone on transcription (no murA): did not show an effect

CC(C)CC[C@@H](O)[C@](C)(O)[C@H]1CC[C@@]2(O)C3=CC(=O)[C@]4(O)C[C@@H](O)[C@@H](O)C[C@]4(C)[C@H]3[C@H](O)C[C@]12C [murA, muristerone A]
lowest murA dosage evoking a detectable response (GRdEcR + RXR, CAT reporter): 0.1 µM | MurA (inducibility) (GRdEcR/RXR, 0.1 μM murA): + ((+) designates a change in transcriptional level that exceeds 2.5-fold)

juvocimene
potentiation of MUR-inducible GEcEc-dependent activity (25 μM test compound, 0.2 μM muristerone A): between two and four times

— patent US8637237B2, “Methods, compositions, and systems for the identification of species-specific or developmental stage-specific insecticides” (The University of North Carolina at Greensboro, priority 2003, dated 2014)
